In patent US12169166B2, “Fluorogenic cyanine compounds for detecting nucleic acids” (AAT Bioquest, Inc., priority 2021, dated 2024):
Entries after “also recorded” stand apart in the source; their conditions may differ.

What was measured:
S. typhimurium = test: Mutagenicity test with S9 liver extract, colony count; format: cell-based; settings: 0.2, 1 and 5 ug/plate, 48 hours at 37° C. (FIG. 8)
Procedure: Mutagenicity tests are performed as described in Example 23.
Tubes of top agar are liquified and cooled to 55-60° C. 0.3 mL of histidine/biotin stock (Presque Isle Cultures) is added alongside 20 uL of S9 liver extract. (Sigma). To the top agar tubes 0.1 mL of S. typhimurium (Grown overnight at 37° C. in TSB culture) is added with 1 mL serological pipette. The mixture is thoroughly mixed by vortexing at low speed. The culture mixture is poured into the plates of the glucose-minimal salts agar plates. With the sterile loops, a disk on its edge is placed near the center of the plate. A serial concentrations of cyanine compounds (0.2, 1 and 5 ug/plate) are added to saturate the disk with a sterile Pasteur pipette. Sterile water is used with the same volume as a negative control. The plates are incubated for 48 hours at 37° C., and the colonies are counted near the disk.

Calf thymus DNA [1] = test: Fluorescence emission spectra in the presence or absence of DNA; format: binding; settings: dye 5 ug/ml, DNA 3 ug/ml, Tris Buffer pH=8.0 (FIG. 2)
Procedure: Absorption and fluorescence spectra of cyanine compounds are measured in the presence or absence of DNA in Tris buffer (pH=8.0). […]

HeLa cells [2] = test: Cellular nucleic acid staining of live and fixed cells; format: cell-based; settings: dye 1 μg/ml in PBS, live or fixed HeLa cells, 30 min, fluorescence microscope (FIG. 6)
Procedure: A cyanine dye (1 μg/ml) in PBS buffer is incubated with live or fixed HeLa cells in 96-well plate for 30 min respectively. The fluorescence image of cells is taken with a fluorescence microscope.
A cyanine dye (1 μg/ml) in PBS buffer (prepared from 1 mM DMSO stock solution) is incubated with live and fixed HeLa cells in 96-well plate for 30 min respectively.

[3] = system: pGL3 Control vector (Promega) DNA; test: Pre-cast DNA gel staining; format: binding; settings: 0.9% agarose, dye 1 μg/ml; for sensitivity for detecting DNA on gel compared with TO, pre-cast gel staining: same conditions as TO; for amount of DNA clearly detected per lane, pre-cast gel staining: 300 nm UV transilluminator (FIG. 4)
Procedure: (§1) FIGS. 4A-4B show a representation of pre-cast DNA gel staining with Compound 5 versus Thiazole Orange. Serial dilutions of a DNA sample (86, 43, 21.5, 10.7, 5.3, 2.6, 1.3, 0.5 ng/lane) are detected with Thiazole Orange or Compound 5. Compound 5 can clearly detect 5.3 ng DNA while TO can only detect 43 ng.
An agarose gel solution (0.9% agarose) is prepared following a standard protocol (J. Roskams et al., Lab Ref A Handbook of Recipes, Reagents, and Other Reference Tools for Use at the Bench, Cold Spring Harbor Laboratory Press, Cold Spring Harbor, N.Y., 2002). A stock solution of a cyanine dye in DMSO is prepared. An aliquot of the stock solution of dye is added to the gel solution, while it is hot, resulting in an effective working concentration of the dye (1 μg/ml). The resulting solution is thoroughly mixed by swirling. The resulting gel solution is poured onto a gel slab to cast the gel. Serial two-fold dilutions of pGL3 Control vector (Promega) are made and the resulting DNA samples are loaded onto the gel in eight lanes from left to right with a loading of 86, 43, 21.5, 10.7, 5.3, 2.6, 1.3, 0.5 ng/lane, respectively. The DNA samples are electrophoretically separated in 1×TAE buffer using a standard protocol. The resulting gel is then viewed using a UV transilluminator with 300 nm excitation. Photographs of the illuminated gels are taken with an EB filter.

[4] = system: pGL3 Control vector (Promega) DNA; test: Post-DNA gel staining; format: binding; settings: 0.9% agarose, dye 1 ug/ml, same conditions as TO
Procedure: as §1, with “FIGS. 5A-5B” for “FIGS. 4A-4B”, “of post-DNA” for “of pre-cast DNA”, “detect 1.3” for “detect 5.3”, “detect 21.5” for “detect 43”
Agarose gels (0.9% agarose) are prepared following a standard protocol (J. Roskams et al., Lab Ref A Handbook of Recipes, Reagents, and Other Reverence Tools for Use at the Bench, Cold Spring Harbor Laboratory Press, Cold Spring Harbor, N.Y., 2002). Serial two-fold dilutions of pGL3 Control vector (Promega) are made and the resulting DNA samples are loaded onto an agarose gel in eight lanes from left to right with a loading of 86, 43, 21.5, 10.7, 5.3, 2.6, 1.3, 0.5 ng/lane, respectively. The DNA samples are electrophoretically separated in 1×TAE buffer using a standard protocol. A stock solution of a cyanine dye in DMSO at about 12 mM concentration is prepared. The stock solution of dye is diluted using an appropriate aqueous solvent to provide a staining solution with an appropriate effective working concentration of the dye (1 ug/ml). The agarose gel is submerged in the staining solution for approximately 30 minutes to stain the gel. The resulting gel is then viewed using a UV transilluminator with 300 nm excitation. […]

HeLa cells [5] = test: Cellular cytotoxicity (cell viability, WST kit); format: cell-based; settings: 0-100 ug/mL dye, 24 hours (FIG. 7)
Procedure: HeLa cells are plated in a 96-well plate (100 μL volume). Next day, to each 100 ul of cells is added 100 ul cyanine solution to make a series of cell samples with the final cyanine dye concentrations of 0, 0.31, 0.62, 1.6, 3.12, 6.25, 12.5, 25, 50, 100 ug/mL respectively. The cell viabilities are measured and plotted for each sample.
HeLa cells are plated in a 96-well plate (100 μL volume). Next day, to each 100 ul of cells is added 100 ul cyanine solution to make a serial cell samples with the final cyanine dye concentrations of 0, 0.31, 0.62, 1.6, 3.12, 6.25, 12.5, 25, 50, 100 ug/mL respectively (total volume is 200 μL for each sample), The cells are incubated in the cyanine-containing media for 24 hours. The cell viabilities are measured with Cell Meter™ Colorimetric WST-5′ Cell Quantification Kit (AAT Bioquest) according to the product instruction.

Calf thymus DNA [6] = test: DNA responses in solution (fluorescence vs DNA concentration); format: binding; settings: Tris Buffer pH=8.0, serial DNA dilutions, microtiter plate reader (FIG. 3)
Procedure: The fluorescence intensities of Compound 5 are measured in the presence of serial dilutions of a DNA sample (0, 3.12, 6.25, 12.5, 25, 50, 100, 1000 ng/ml).
The fluorescence of a cyanine compound in 100 μL of Tris Buffer (pH=8.0) are measured in the presence of 0, 0.21, 0.62, 1.85, 5.6, 16.7, and 50 μg/ml final concentrations of Calf thymus DNA with a microtiter plate reader. The fluorescence is plotted against DNA concentration.

| SMILES | mutagenicity compared with SYBR Green (S. typhimurium) | fluorescence enhancement in the presence vs absence of DNA, compared with TO (Calf thymus DNA [1]) | live cell permeability (HeLa cells [2]) | sensitivity for detecting DNA on gel compared with TO, pre-cast gel staining [3] | sensitivity for detecting DNA on gel compared with TO, post-gel staining [4] | cell toxicity compared with SYBR Green (HeLa cells [5]) | fluorescence signal in response to increasing DNA concentrations, compared with TO (Calf thymus DNA [6]) | amount of DNA clearly detected per lane, pre-cast gel staining [3] [ng] |
| --- | --- | --- | --- | --- | --- | --- | --- | --- |
| OCCCCN1C(c2ccccc2)=C/C(=C\c2sc3ccccc3[n+]2CCCCO)c2ccccc21 [Compound 4] | significantly lower mutagenicity than SYBR Green; also recorded: much lower mutagenicity than SYBR Green | stronger fluorescence enhancements than TO | cell impermeability | significantly higher sensitivity for detecting DNA on a gel than TO; also recorded: much higher sensitivity for detecting DNA on gel than TO | significantly higher sensitivity for detecting DNA on gel than TO; also recorded: much higher sensitivity for detecting DNA on gel than TO | lower cell toxicity compared to SYBR Green; also recorded: much lower cell toxicity than SYBR Green | stronger fluorescence signals than TO; also recorded: linearly responded to the DNA concentrations with better sensitivity than TO |  |
| NCCCCN1C(c2ccccc2)=C/C(=C\c2sc3ccccc3[n+]2CCCCN)c2ccccc21 [Compound 5] | significantly lower mutagenicity than SYBR Green; also recorded: much low mutagenicity than SYBR Green | stronger fluorescence enhancements than TO | live cell impermeant |  |  | significantly lower cell toxicity than SYBR Green; also recorded: much lower cell toxicity than SYBR Green | significantly higher fluorescence signals than Thiazole orange (TO); also recorded: stronger fluorescence signals than TO | 5.3 |
| CC(=O)NCCCCN1C(c2ccccc2)=C/C(=C\c2sc3ccccc3[n+]2CCCCNC(C)=O)c2ccccc21 [Compound 6] | significantly lower mutagenicity than SYBR Green; also recorded: much lower mutagenicity than SYBR Green | stronger fluorescence enhancements than TO | cell impermeability | significantly higher sensitivity for detecting DNA on a gel than TO; also recorded: much higher sensitivity for detecting DNA on gel than TO | significantly higher sensitivity for detecting DNA on gel than TO; also recorded: much higher sensitivity for detecting DNA on gel than TO | lower cell toxicity compared to SYBR Green; also recorded: much lower cell toxicity than SYBR Green | stronger fluorescence signals than TO |  |
| CN1/C(=C/c2cc[n+](C)c3ccccc23)Sc2ccccc21 [TO, Thiazole Orange, reference compound] |  |  | can readily penetrate the cells |  |  |  |  | 43 |
